The text below walks through data of patent US8741905B2, “Compounds and methods for treating autoimmune diseases” (The Broad Institute, Inc., priority 2010, dated 2014).

The subject of experiment [1] is INS-1E cells. The experiment is described as follows: Cellular ATP levels (CellTiter-Glo) in cytokine-treated INS-1E cells; suppression of cytokine-induced beta-cell apoptosis. The class given is cell-based, rat. The following applies: INS-1E cells, cytokines IL-1β, IFN-γ, TNF-α, 48 h, CellTiter-Glo, read-out: CTG EC50 in HTS. On the procedure:
The compounds were analyzed for activity utilizing methods described in Chou et al. (ACS Chem. Biol. 2010 Aug. 20; 5(8):729-34).
INS-1E cells were seeded at 10,000 cells per well using a Multidrop Combi (Thermo Labsystems) in white optical 384-well plates (Corning Life Sciences). After overnight incubation, medium was removed and 50 μL of RPMI containing 1% FBS and a combination of cytokines (10 ng mL-^1 IL-1β, 50 ng mL^−1 IFN-γ, 25 ngmL^−1 TNF-α) was added to every well. Using libraries of compounds dissolved in DMSO and a CyBi-Well pin-transfer robot (CyBio Corp.), 0.1 μL of each compound was added. After 48 h, medium was removed and 20 μL of CellTiter-Glo reagent was added. Luminescence was measured after 10 min of incubation using an EnVision plate reader (PerkinElmer).
Instrument output files were processed using Pipeline Pilot (Accelrys) and input to MATLAB (The MathWorks) for data normalization. Compound performance scores relative to a distribution of mock-treated (DMSO) wells were calculated using a revised version of the scoring system underlying ChemBank. (Seiler et al., Nucleic Acids Res. 36, D351-359, 2008). The role of replicate treatments was further developed as follows: first, mock-treatment distributions were modeled using all mock-treated wells measured on a single day, regardless of their nominal replicate; second, per-compound scores weighted each in-plate background-subtracted measurement by the uncertainty in that measurement, using the method of maximum likelihood. The uncertainty in a single background-subtracted measurement was estimated using the number of mock-treated wells on the plate and, as a measure of the assay noise, the standard deviation of the per-day mock-treatment distribution. The signal, a weighted average of differences, was scaled by the noise, the standard deviation of the mock treatment distribution.
INS-1E cells were seeded at 10,000 cells/well using a Multidrop Combi (Thermo Labsystems) in white optical 384-well plates (Corning Life Sciences). After overnight incubation, medium was removed and 50 μL RPMI containing the treated compound, 1% FBS and a combination of cytokines (10 ng/mL IL-1β, 50 ng/mL IFN-γ, 25 ng/mL TNF-α) was added to every well. After incubation for 48 hr, medium was removed and 20 μL CellTiter-Glo reagent was added. Luminescence was measured after 10-min incubation using an EnVision plate reader (PerkinElmer).
On the technique in general: Cellular ATP, detected with luciferase, serves as a proxy for viable cell number.

Experiment [2] relates to INS-1E cells. Kind of experiment: Caspase-3 activity assay (Caspase-Glo 3/7) in cytokine-treated INS-1E cells. The class given is cell-based, rat. The following applies: cytokines, 48 h, Caspase-Glo 3/7. The procedure: INS-1E cells were seeded at 5,000 cells per well in white optical 384-well plates and treated as described for highthroughput screening. After treatment with cytokines and compounds for 48 h, medium was removed and 20 μL Caspase-Glo 3/7 reagent was added. Luminescence was measured after 2 h of incubation using an EnVision plate reader.

Molecules are shown by their SMILES.

As a reminder, the EC50 is the midpoint of the concentration-response curve. As to `COc1ccccc1S(=O)(=O)N(C)C[C@@H]1Oc2c(NC(=O)Nc3cccc4ccccc34)cccc2C(=O)N([C@@H](C)CO)C[C@H]1C` [Compound 17A], the EC50 in the experiment on INS-1E cells [1] and with INS-1E cells [2] was > 25 µM each time.

Consider `C[C@@H]1CN([C@@H](C)CO)C(=O)c2cccc(NC(=O)Nc3cccc4ccccc34)c2O[C@H]1CN(C)S(=O)(=O)c1ccc2c(c1)OCCCO2` [Compound 25A], for which the EC50 with INS-1E cells [1] and with INS-1E cells [2] was > 25 µM each time.

With `C[C@@H]1CN([C@@H](C)CO)C(=O)c2cccc(NC(=O)Nc3cccc4ccccc34)c2O[C@H]1CN(C)S(=O)(=O)c1ccc(Oc2ccccc2)cc1` [Compound 12A], the EC50 in the experiment with INS-1E cells [1] and in the experiment with INS-1E cells [2] was > 25 µM throughout.

In the case of `C[C@@H]1CN([C@@H](C)CO)C(=O)c2cccc(NC(=O)Nc3cccc4ccccc34)c2O[C@H]1CN(C)S(=O)(=O)c1ccc2c(c1)CCC(=O)N2` [Compound 14A], the EC50 with INS-1E cells [1] and with INS-1E cells [2] was > 25 µM in each case.

On to `COc1ccc(S(=O)(=O)N(C)C[C@@H]2Oc3c(NC(=O)Nc4cccc5c4CCCC5)cccc3C(=O)N([C@@H](C)CO)C[C@H]2C)cc1` [Compound 43A], for which the EC50 in the experiment with INS-1E cells [1] and in the experiment on INS-1E cells [2] was > 25 µM throughout.

As to `C[C@@H]1CN([C@@H](C)CO)C(=O)c2cccc(NC(=O)Nc3cccc4ccccc34)c2O[C@H]1CN(C)S(=O)(=O)c1ccccc1` [Compound 4A], the EC50 in the experiment on INS-1E cells [1] and in the experiment with INS-1E cells [2] was > 25 µM throughout.

Consider `COc1ccc(S(=O)(=O)N(C)C[C@@H]2Oc3c(NC(=O)Nc4cccc(C(F)(F)F)c4)cccc3C(=O)N([C@@H](C)CO)C[C@H]2C)cc1` [Compound 42A], for which the EC50 in the experiment with INS-1E cells [1] and with INS-1E cells [2] was > 25 µM throughout.

With `Cc1ccc(S(=O)(=O)N(C)C[C@@H]2Oc3c(NC(=O)Nc4cccc5c4ccn5C)cccc3C(=O)N([C@@H](C)CO)C[C@H]2C)cc1` [Compound 3A, N-(((2R,3R)-5-((S)-1-hydroxypropan-2-yl)-3-methyl-10-(3-(1-methyl-1H-indol-4-yl)ureido)-6-oxo-3,4,5,6-tetrahydro-2H-benzo[b][1,5]oxazocin-2-yl)methyl)-N,4-dimethylbenzenesulfonamide], the EC50 is > 25 µM with INS-1E cells [1] (Rattus norvegicus) and > 10 µM in the experiment with INS-1E cells [2] (Rattus norvegicus).

Take `C[C@@H]1CN([C@@H](C)CO)C(=O)c2cccc(NC(=O)Nc3cccc4ccccc34)c2O[C@H]1CN(C)S(=O)(=O)c1ccc2c(c1)oc(=O)n2C` [Compound 15A]: the half-maximal effective concentration (EC50) in the experiment on INS-1E cells [1] and in the experiment with INS-1E cells [2] was > 25 µM throughout.

In the case of `COc1ccc(S(=O)(=O)N(C)C[C@@H]2Oc3c(NC(=O)c4cc(C)nn4C)cccc3C(=O)N([C@@H](C)CO)C[C@H]2C)cc1` [Compound 34A], the EC50 with INS-1E cells [1] and with INS-1E cells [2] was > 25 µM each time.

With `COc1ccc(S(=O)(=O)N(C)C[C@@H]2Oc3c(NC(=O)Nc4cc(F)ccc4F)cccc3C(=O)N([C@@H](C)CO)C[C@H]2C)cc1` [Compound 41A], the half-maximal effective concentration (EC50) with INS-1E cells [1] and in the experiment on INS-1E cells [2] was > 25 µM in each case.

`COc1ccc(S(=O)(=O)N(C)C[C@@H]2Oc3c(NC(=O)Nc4ccccc4)cccc3C(=O)N([C@@H](C)CO)C[C@H]2C)cc1` [Compound 33A]: the EC50 in the experiment with INS-1E cells [1] and in the experiment on INS-1E cells [2] was > 25 µM each time.

As to `C[C@@H]1CN([C@@H](C)CO)C(=O)c2cccc(NC(=O)Nc3cccc4ccccc34)c2O[C@H]1CN(C)S(=O)(=O)c1ccccc1F` [Compound 8A], the EC50 with INS-1E cells [1] and in the experiment on INS-1E cells [2] was > 25 µM throughout.

With `COc1ccc(S(=O)(=O)N(C)C[C@@H]2Oc3c(NC(=O)Nc4cccc5ccccc45)cccc3C(=O)N([C@@H](C)CO)C[C@H]2C)cc1F` [Compound 10A], the EC50 in the experiment with INS-1E cells [1] was > 20 µM; in the experiment with INS-1E cells [2] it was > 25 µM.
